Laboratory results reported in patent US20230364032A1, “USE OF 2-HOBA TO TREAT ATHEROSCLEROSIS” (Vanderbilt University, priority 2020, published 2023).
“And” between values parts separate entries of the source, which are not always exact repeats. Identical values can stand only once. “Also recorded” adds a separate entry of the source.

Tests used:
[1] = previous in vitro studies; cited from earlier work
[2] = tested on: hypercholesterolemic Ldlr−/− mice; experiment: Atherosclerosis in western-diet-fed Ldlr−/− mice (Oil-Red-O proximal aorta sections and en face aorta); assay type: in vivo, mouse; conditions: western diet 16 weeks; for effect on atherosclerosis: hypercholesterolemic Ldlr−/− mice
Method: (§1) Ldlr^−/− and WT on C57BL/6 background mice were obtained from the Jackson Laboratory. Animal protocols were performed according to the regulations of Vanderbilt University's Institutional Animal Care and Usage Committee. Mice were maintained on chow or a Western-type diet containing 21% milk fat and 0.15% cholesterol (Teklad). Eight week old, female Ldlr^−/− mice on a chow diet were pretreated with vehicle alone (Water) or containing either 1 g/L of 4-HOBA or 1 g/L of 2-HOBA. 4-HOBA (as hydrochloride salt) was synthesized as previously described^21. 2-HOBA (as the acetate salt, CAS 1206675-01-5) was manufactured by TSI Co., Ltd. (Missoula, MT) and obtained from Metabolic Technologies, Inc., Ames, IA^24. A commercial production lot was used (Lot 16120312), and the purity of the commercial lot was verified to be >99% via HPLC and NMR spectroscopy^24. After two weeks, the mice continued to receive these treatments but were switched to a western diet for 16 weeks to induce hypercholesterolemia and atherosclerosis. Similarly, 12 week-old male Ldlr^−/− mice were pretreated with vehicle alone (water) or containing 1 g/L of 2-HOBA for two weeks and were then switched to a western diet for 16 weeks to induce hypercholesterolemia and atherosclerosis, while continuing the treatment with 2-HOBA or water alone^58, 59, 60 Based on the average weight and daily consumption of water per mouse the estimated daily dosage with 1 g/L of 2-HOBA is 200 mg/Kg. […] Eight week old, male Ldlr^−/− mice were fed a western diet for 16 weeks and were continuously treated with water containing either 2-HOBA or 4-HOBA. Urine samples were collected using metabolic cages (2 mice in one cage) during 18 h after oral gavage with either 2-HOBA or 4-HOBA (5 mg each mouse).
The extent of atherosclerosis was examined both Oil-Red-O-stained cross-sections of the proximal aorta and by en face analysis^30. Briefly, cryosections of 10-micron thickness were cut from the region of the proximal aorta starting from the end of the aortic sinus and for 300 μm distally, according to the method of Paigen et al.^62. The Oil red-O staining of 15 serial sections from the root to ascending aortic region were used to quantify the Oil red-O-positive staining area per mouse. The mean from the 15 serial sections was applied for the aortic root atherosclerotic lesion size per mouse using the KS300 imaging system (Kontron Elektronik GmbH) as described^63, 64, 65. All other stains were done using sections that were 40 to 60 μm distal of the aortic sinus. For each mouse, 4 sections were stained and quantitation was done on the entire cross section of all 4 sections. For immunofluorescence staining, 5 μm cross-sections of the proximal aorta were fixed in cold acetone (Sigma), blocked in Background Buster (Innovex), incubated with indicated primary antibodies (MDA and CD68) at 4° C. for overnight. After incubation with fluorescent labeled secondary antibodies at 37 C for 1 hour, the nucleus was counterstained with Hoechst. Images were captured with a fluorescence microscope (Olympus IX81) and SlideBook 6 (Intelligent-Image) software and quantitated using ImageJ software (NIH)^66.

[3] = 2-HOBA and 4-HOBA levels in plasma and tissues of Ldlr−/− mice (LC/MS); assay type: in vivo; conditions: for concentration at 16 weeks: Ldlr−/− on C57BL/6 background, mouse, plasma, oral, 1 g/L in drinking water, male Ldlr−/− mice after 16 weeks of treatment with 1 g/L of water; for levels in the aorta and heart / plasma levels of 2-HOBA versus 4-HOBA: male Ldlr−/− mice; for levels in the aorta and heart: 30 min after oral gavage; for plasma levels of 2-HOBA versus 4-HOBA: 30 min after oral gavage of 5 mg
Method: FIG. 11A-11C show the concentration of 2-HOBA or 4-HOBA was measured in plasma and tissues from Ldlr^−/− mice. A. Eight week old male Ldlr^−/− mice were fed WD for 16 weeks and were continuously treated with water containing either 2-HOBA (n=9) or 4-HOBA (n=6). Plasma was collected 30 min after oral gavage of mice with either 2-HOBA or 4-HOBA (5 mg each mouse). (Mean±SEM shown for each, p=0.388 Mann-Whitney Test.) B-C. Levels of HOBA were measured in the aorta and heart of male Ldlr^−/− mice consuming a chow diet 30 min after oral gavage of 2-HOBA or 4-HOBA (5 mg each mouse). (Mean±SEM shown for each, N.S. Student t test). The levels of 2-HOBA or 4-HOBA were measured in the plasma and tissues using LC/MS as described in the Methods.
as §1
Measurement of 2-HOBA and 4-HOBA was performed by LC/MS after derivatization with phenylisothiocyanate (PITC), and using [^2H4]-2-HOBA as an internal standard as previously described for 2-HOBA^71 (See FIG. 23). For these assays, the Waters Xevo-TQ-Smicro triple quadrupole mass spectrometer operating in positive ion multiple reaction monitoring (MRM) mode monitored the following transitions: for PITC-2-HOBA or PITC-4-HOBA, m/z 259→107@20 eV (quantifier transition) and m/z 259→153 @20 eV (qualifier transition); for PITC-[^2H4]2-HOBA m/z 263 →107@20 eV (quantifier transition), m/z 263→111 @20 eV (qualifier transition). Abundance for PITC-2-HOBA was calculated based on the ratio of peak area versus that of PITC-[^2H4]2-HOBA. Because the transition reactions for PITC-4-HOBA are less efficient than for PITC-2-HOBA, the ratio of peak areas for PITC-4-HOBA/PITC-[^2l H4]2-HOBA was multiplied by the correction factors 3.9 and 5.7 when using the m/z 107 and m/z 153 transition, respectively (See FIG. 24).

F2-IsoP = experiment: Urine F2-isoprostane levels (LC/MS/MS); assay type: in vivo, mouse; conditions: Ldlr−/− mice, western diet 16 weeks, 1 g/L; vehicle, 4-HOBA, 2-HOBA compared
Method: The urine F2-IsoP levels were measured by LC/MS/MS) from Ldlr^−/− mice consuming a western diet for 16 weeks and treated with 1 g/L 2-HOBA, 4-HOBA, or vehicle. N=5 or 6 per group, p=0.43, Kruskal-Wallis test. Urinary creatinine levels were measured for normalization.

[4] = male Ldlr−/− mice, 1 g/L, compared to water

Structure (SMILES) | reactivity with lipid dicarbonyls / dicarbonyl scavenging [1] | reduction of extent of proximal aortic atherosclerosis ([2]; female Ldlr−/− mice, 1 g/L in water, compared to 4-HOBA) | reduction of extent of proximal aortic atherosclerosis ([2]; female Ldlr−/− mice, 1 g/L in water, compared to vehicle) | reduction of extent of aortic atherosclerosis, en face analysis ([2]; female Ldlr−/− mice, 1 g/L, compared to 4-HOBA) | reduction of extent of aortic atherosclerosis, en face analysis ([2]; female Ldlr−/− mice, 1 g/L, compared to vehicle) | effect on atherosclerosis ([2]; 1 g/L) | reduction of extent of proximal aortic atherosclerosis [2, 4] | reduction of extent of whole aorta atherosclerosis [2, 4] | concentration at 16 weeks [3] | levels in the aorta and heart [3] | plasma levels of 2-HOBA versus 4-HOBA [3] | urine F2-IsoP levels (F2-IsoP)
NCc1ccccc1O [2-HOBA, 2-hydroxybenzylamine] | rapidly reacts | 31.5% | 31% and 31.1% | 59.1% | 60% and 60.3% | attenuates atherosclerosis; also recorded: reduces atherosclerotic lesions | 37% | 45% | 469 ± 38 ng/mL | similar | not significantly different | not significantly different; also recorded: does not impact
NCc1ccc(O)cc1 [4-HOBA, 4-hydroxybenzylamine, reference compound] | poor reactivity; also recorded: ineffective |  |  |  |  | not atheroprotective |  |  | 25 ± 3 ng/mL | similar | not significantly different | not different
